Source: patent publication US11542247B2, “Bi-heteroaryl substitute 1,4-benzodiazepines and uses thereof for the treatment of cancer” (Janssen Pharmaceutica NV, priority 2015, dated 2023)

How the values were obtained:
Test in all cases: Enzyme binding assay (KINOMEscan)
Settings in all cases: DiscoveRx, pKd = -log Kd (M)
FGFR4 = FGFR4 (Homo sapiens (Human), UniProt P22455)
Method: (§1) Enzyme Binding Assays (KINOMEscan®)
(§2) Kinase enzyme binding affinities of compounds disclosed herein were determined using the KINOMEscan® technology performed by DiscoveRx Corporation, San Diego, Calif., USA (www.kinomescan.com). Table A2 reports the obtained pKd values, with Kd (M) being the inhibitor binding constant value and with pKd being −log Kd: […]

VEGFR2 = VEGFR2 (Homo sapiens (Human), UniProt P35968)
Sequence of VEGFR2 (P35968 20-1356): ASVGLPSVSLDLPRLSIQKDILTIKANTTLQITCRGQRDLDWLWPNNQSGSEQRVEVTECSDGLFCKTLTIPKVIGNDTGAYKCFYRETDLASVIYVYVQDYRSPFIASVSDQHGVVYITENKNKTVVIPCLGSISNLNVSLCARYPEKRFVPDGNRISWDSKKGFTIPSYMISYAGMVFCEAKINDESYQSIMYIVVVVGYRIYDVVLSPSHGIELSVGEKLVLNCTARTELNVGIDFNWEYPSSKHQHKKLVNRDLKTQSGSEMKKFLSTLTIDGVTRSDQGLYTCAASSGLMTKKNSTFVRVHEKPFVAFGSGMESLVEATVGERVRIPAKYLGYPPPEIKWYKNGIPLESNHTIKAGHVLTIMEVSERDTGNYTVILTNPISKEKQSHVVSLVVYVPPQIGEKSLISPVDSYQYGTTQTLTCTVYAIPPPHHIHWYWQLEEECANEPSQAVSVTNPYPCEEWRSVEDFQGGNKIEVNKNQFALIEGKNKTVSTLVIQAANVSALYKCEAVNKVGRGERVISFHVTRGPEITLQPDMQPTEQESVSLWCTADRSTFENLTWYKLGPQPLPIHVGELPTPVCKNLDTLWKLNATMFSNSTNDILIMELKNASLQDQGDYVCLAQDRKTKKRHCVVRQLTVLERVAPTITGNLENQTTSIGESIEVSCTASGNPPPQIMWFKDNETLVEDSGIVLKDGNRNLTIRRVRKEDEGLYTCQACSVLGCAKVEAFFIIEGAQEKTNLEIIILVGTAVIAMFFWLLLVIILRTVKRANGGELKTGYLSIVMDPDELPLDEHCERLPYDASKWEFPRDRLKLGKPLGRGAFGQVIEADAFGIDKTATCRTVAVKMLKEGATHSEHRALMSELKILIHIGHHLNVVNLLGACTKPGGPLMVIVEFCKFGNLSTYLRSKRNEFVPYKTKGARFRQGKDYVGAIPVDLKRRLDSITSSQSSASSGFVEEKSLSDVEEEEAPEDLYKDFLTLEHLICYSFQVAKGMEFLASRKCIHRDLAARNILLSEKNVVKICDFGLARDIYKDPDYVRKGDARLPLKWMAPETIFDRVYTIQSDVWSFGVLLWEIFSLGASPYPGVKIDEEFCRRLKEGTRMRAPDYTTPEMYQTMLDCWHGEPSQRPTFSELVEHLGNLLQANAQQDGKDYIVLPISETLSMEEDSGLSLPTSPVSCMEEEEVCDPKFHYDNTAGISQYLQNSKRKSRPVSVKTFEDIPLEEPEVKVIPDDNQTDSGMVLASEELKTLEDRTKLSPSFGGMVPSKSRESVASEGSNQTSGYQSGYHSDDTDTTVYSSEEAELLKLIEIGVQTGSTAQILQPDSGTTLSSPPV
Method: as §1, §2

FGFR3 = FGFR3 (Homo sapiens (Human), UniProt P22607)
Sequence of FGFR3 (P22607 23-806): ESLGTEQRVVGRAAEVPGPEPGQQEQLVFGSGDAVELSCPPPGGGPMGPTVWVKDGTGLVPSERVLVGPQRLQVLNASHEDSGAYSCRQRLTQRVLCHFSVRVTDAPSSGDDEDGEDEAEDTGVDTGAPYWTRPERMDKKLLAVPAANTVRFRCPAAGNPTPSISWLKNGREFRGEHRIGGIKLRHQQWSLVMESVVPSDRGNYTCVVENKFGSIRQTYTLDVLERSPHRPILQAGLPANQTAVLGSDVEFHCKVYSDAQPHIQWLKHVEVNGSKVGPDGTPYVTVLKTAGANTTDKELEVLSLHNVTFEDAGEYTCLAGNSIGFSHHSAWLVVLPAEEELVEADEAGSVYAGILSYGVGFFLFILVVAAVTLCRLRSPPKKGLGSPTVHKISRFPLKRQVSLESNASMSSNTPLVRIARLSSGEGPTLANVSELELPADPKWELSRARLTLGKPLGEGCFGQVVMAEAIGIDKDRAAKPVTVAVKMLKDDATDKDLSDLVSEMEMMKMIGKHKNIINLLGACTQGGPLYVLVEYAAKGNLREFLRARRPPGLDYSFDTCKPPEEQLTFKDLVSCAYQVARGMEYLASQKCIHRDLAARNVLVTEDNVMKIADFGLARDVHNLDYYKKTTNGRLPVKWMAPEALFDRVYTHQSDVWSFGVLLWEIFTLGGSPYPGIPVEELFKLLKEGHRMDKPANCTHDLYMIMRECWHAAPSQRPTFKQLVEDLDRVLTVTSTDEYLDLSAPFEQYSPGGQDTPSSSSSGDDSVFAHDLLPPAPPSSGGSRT
Method: as §1, §2

FGFR1 = FGFR1 (Homo sapiens (Human), UniProt P11362)
Sequence of FGFR1 (P11362 22-822): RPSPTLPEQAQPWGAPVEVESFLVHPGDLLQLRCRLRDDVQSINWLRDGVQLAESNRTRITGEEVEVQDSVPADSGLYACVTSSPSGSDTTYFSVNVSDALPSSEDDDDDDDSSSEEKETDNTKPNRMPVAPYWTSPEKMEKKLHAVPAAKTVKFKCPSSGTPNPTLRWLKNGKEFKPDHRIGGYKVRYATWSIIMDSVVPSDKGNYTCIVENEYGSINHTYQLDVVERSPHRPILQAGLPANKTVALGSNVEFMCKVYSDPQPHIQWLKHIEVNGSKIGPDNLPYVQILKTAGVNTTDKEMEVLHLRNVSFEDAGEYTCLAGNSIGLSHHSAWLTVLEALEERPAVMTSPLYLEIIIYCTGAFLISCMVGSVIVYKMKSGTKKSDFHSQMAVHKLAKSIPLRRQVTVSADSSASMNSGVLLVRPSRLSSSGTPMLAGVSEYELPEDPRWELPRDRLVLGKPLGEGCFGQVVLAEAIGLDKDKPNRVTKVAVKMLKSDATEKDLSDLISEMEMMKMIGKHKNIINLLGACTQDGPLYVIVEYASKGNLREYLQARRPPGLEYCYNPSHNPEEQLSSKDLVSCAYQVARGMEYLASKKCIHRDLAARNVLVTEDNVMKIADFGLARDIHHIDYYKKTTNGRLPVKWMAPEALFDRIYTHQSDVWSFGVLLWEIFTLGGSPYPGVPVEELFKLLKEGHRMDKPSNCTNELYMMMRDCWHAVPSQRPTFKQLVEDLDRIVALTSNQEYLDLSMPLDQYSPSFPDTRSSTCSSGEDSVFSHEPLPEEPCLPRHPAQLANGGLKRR
Method: as §1, §2

FGFR2 = FGFR2 (Homo sapiens (Human), UniProt P21802)
Sequence of FGFR2 (P21802 22-821): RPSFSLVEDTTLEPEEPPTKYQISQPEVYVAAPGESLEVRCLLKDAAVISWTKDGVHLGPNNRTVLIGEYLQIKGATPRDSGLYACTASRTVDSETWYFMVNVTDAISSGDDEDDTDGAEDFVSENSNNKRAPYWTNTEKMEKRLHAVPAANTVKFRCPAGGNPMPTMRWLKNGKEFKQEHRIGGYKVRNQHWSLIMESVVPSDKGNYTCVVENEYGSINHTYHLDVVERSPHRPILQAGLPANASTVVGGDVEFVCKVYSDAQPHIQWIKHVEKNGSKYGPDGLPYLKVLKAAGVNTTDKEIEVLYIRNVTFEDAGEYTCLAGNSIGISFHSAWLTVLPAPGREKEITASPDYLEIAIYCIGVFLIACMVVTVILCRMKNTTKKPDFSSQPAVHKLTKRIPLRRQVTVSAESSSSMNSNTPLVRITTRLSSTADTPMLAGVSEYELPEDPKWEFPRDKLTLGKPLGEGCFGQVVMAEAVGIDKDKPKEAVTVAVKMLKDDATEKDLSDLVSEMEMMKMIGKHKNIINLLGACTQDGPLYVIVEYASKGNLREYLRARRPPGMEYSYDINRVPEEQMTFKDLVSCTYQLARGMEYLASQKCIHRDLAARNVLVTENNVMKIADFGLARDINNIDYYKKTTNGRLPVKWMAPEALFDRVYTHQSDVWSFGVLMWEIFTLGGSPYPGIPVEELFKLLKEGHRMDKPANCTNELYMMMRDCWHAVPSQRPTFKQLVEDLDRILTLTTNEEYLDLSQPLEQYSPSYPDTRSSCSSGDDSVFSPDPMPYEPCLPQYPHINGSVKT
Method: as §1, §2

Sequence of FGFR4 (P22455 22-802): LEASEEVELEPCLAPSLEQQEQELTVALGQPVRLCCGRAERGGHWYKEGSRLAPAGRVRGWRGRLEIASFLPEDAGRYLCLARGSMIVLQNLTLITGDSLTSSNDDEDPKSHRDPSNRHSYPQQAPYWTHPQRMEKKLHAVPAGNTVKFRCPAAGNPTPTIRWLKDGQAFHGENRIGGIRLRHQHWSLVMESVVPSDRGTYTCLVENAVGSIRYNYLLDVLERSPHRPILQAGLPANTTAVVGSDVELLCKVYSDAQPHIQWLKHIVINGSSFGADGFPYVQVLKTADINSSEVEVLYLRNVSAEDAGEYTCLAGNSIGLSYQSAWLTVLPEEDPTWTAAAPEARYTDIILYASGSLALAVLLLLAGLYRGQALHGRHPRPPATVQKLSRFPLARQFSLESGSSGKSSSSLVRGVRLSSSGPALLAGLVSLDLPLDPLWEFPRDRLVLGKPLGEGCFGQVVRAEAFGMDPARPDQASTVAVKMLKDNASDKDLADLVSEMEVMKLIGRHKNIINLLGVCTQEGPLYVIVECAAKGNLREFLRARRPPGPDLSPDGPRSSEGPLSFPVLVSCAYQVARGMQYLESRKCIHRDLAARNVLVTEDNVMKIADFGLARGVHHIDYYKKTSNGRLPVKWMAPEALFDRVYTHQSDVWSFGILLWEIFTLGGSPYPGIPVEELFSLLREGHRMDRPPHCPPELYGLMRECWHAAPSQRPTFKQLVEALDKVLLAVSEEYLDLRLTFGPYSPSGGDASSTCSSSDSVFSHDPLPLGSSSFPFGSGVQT

COc1cc(O)cc2c1CN(C(C)C)CCN2c1ccc2ncc(-c3cnn(C)c3)cc2c1 [Compound 4]
Kd (FGFR4): > 3.02e-06 M | Kd (VEGFR2): > 3.02e-06 M | Kd (FGFR3): > 3.02e-06 M | Kd (FGFR1): > 3.02e-06 M | Kd (FGFR2): > 3.02e-06 M

COc1cc(OC)c2c(c1F)N(c1ccc3ncn(-c4cnn(C)c4)c(=O)c3c1)CCN(C(C)C)C2 [Compound 12]
Kd (FGFR4): > 3.02e-06 M | Kd (VEGFR2): > 3.02e-06 M | Kd (FGFR2): 1.86e-06 M

COc1cc(OC)c2c(c1)N(c1ccc3ncn(-c4cnn(C)c4)c(=O)c3c1)CCN(C(C)C)C2 [Compound 11]
Kd (FGFR4): > 3.02e-06 M | Kd (VEGFR2): > 3.02e-06 M | Kd (FGFR3): > 3.02e-06 M | Kd (FGFR1): > 3.02e-06 M | Kd (FGFR2): > 3.02e-06 M

COc1cc(O)c2c(c1)N(c1ccc3ncc(-c4cnn(C)c4)cc3c1)CCN(C(C)C)C2 [Compound 5]
Kd (FGFR4): > 3.02e-06 M | Kd (VEGFR2): > 3.02e-06 M | Kd (FGFR2): > 3.02e-06 M

COc1cc(OC)c2c(c1)N(c1ccc3ncc(-c4cn[nH]c4)cc3c1)CCN(C(C)C)C2 [Compound 3]
Kd (FGFR4): 1.38e-06 M | Kd (VEGFR2): > 3.02e-06 M | Kd (FGFR2): 8.91e-07 M

COc1cc(OC)c2c(c1)N(c1ccc3ncc(-c4cnn(C)c4)cc3c1)CCN(C(C)C)C2 [Compound 1]
Kd (FGFR4): 2.45e-06 M | Kd (VEGFR2): > 3.02e-06 M | Kd (FGFR2): 1.86e-06 M

COc1cc(OC)c2c(c1)N(c1ccc3ncc(-c4cnn(C)c4)cc3n1)CCN(C(C)C)C2 [Compound 9]
Kd (FGFR4): 1.91e-07 M | Kd (VEGFR2): 1.05e-06 M | Kd (FGFR2): 9.33e-07 M

COc1cc(OC)c2c(c1)N(c1ccc3ncc(-c4cnn(C)c4)nc3n1)CCN(C(C)C)C2 [Compound 7]
Kd (FGFR4): > 3.02e-06 M | Kd (VEGFR2): 2.69e-07 M | Kd (FGFR3): > 3.02e-06 M | Kd (FGFR1): > 3.02e-06 M | Kd (FGFR2): > 1e-06 M

COc1cc(OC)c2c(c1)N(c1ccc3ncc(-c4cnn(C)c4)cc3c1)CCN(C)C2 [Compound 2]
Kd (FGFR4): > 3.02e-06 M | Kd (VEGFR2): > 3.02e-06 M | Kd (FGFR2): > 3.02e-06 M

CC(C)N1CCN(c2ccc3ncc(-c4cnn(C)c4)cc3c2)c2cc(O)cc(O)c2C1 [Compound 6]
Kd (FGFR4): > 3.02e-06 M | Kd (VEGFR2): > 3.02e-06 M | Kd (FGFR3): > 3.02e-06 M | Kd (FGFR1): > 3.02e-06 M | Kd (FGFR2): > 3.02e-06 M
